Measured values published in patent publication US20250134146A1, “FLAVANONE COMPOUNDS AND THEIR USE AS FLAVOR MODIFIERS” (Firmenich Incorporated, priority 2022, published 2025).

Experiments:
Human Panelists [1] = assay: sensory evaluation of sweetness of 6% sucrose solution containing Compound at its Threshold Concentration, relative to pure sucrose solutions; type: in vivo; conditions: 6% sucrose solution plus Compound at its Threshold Concentration, compared with pure sucrose solutions
Source text: (§1) Test samples containing selected experimental compounds were sensory evaluated for sweetness intensity relative to 1.5% sucrose solution by a trained sensory panel of at least 8 panelists. The highest concentration of a Compound which panelists determined to be less sweet than 1.5% sucrose solution was set as its Threshold Concentration (TC). Next, panelists evaluated the sweetness of 6% sucrose solution containing each Compound at its Threshold Concentration (TC), relative to pure sucrose solutions at varying concentrations. Table 5 summarizes the sensory evaluation data for compounds 101,102, 105, 107 and 122-125, 127, 128.

Human Panelists [2] = assay: sensory evaluation of sweetness intensity relative to 1.5% sucrose solution (Threshold Concentration); type: in vivo; conditions: highest concentration judged less sweet than 1.5% sucrose solution, trained sensory panel of at least 8 panelists
Source text: as §1

T1R sweet taste receptor = biological target: T1, T1R sweet taste receptor (Homo sapiens, UniProt Q7RTX0+Q8TE23); assay: in vitro cell-based assay, cells overexpressing the T1R sweet taste receptor; sweet dose-response curves; conditions: cells that overexpress the T1R sweet taste receptor; calculated from sweet dose-response curves
T1 construct: expressed in transfected cells
T1 sequence (Q8TE23 20-839): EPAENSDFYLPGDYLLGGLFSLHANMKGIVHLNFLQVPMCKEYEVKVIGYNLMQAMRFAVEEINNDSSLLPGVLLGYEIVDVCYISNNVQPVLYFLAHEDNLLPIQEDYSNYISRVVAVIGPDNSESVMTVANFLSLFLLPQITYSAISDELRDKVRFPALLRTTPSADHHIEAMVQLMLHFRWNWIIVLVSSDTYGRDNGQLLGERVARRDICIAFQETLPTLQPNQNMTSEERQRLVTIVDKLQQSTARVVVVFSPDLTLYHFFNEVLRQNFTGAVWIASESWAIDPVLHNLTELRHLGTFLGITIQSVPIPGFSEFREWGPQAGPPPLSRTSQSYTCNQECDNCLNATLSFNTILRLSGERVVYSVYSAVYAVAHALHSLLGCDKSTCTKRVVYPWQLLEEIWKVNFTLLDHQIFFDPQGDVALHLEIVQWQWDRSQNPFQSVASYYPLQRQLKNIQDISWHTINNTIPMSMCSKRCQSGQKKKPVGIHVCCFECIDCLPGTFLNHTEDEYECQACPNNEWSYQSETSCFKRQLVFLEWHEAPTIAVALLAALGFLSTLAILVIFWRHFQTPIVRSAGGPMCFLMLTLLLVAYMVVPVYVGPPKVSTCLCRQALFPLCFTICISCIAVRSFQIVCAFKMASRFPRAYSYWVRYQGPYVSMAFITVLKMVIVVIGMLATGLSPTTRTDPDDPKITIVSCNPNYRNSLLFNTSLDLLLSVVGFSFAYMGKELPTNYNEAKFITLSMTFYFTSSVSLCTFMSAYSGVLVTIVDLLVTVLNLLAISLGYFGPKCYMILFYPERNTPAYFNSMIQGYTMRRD
T1 sequence (Q7RTX0 21-852): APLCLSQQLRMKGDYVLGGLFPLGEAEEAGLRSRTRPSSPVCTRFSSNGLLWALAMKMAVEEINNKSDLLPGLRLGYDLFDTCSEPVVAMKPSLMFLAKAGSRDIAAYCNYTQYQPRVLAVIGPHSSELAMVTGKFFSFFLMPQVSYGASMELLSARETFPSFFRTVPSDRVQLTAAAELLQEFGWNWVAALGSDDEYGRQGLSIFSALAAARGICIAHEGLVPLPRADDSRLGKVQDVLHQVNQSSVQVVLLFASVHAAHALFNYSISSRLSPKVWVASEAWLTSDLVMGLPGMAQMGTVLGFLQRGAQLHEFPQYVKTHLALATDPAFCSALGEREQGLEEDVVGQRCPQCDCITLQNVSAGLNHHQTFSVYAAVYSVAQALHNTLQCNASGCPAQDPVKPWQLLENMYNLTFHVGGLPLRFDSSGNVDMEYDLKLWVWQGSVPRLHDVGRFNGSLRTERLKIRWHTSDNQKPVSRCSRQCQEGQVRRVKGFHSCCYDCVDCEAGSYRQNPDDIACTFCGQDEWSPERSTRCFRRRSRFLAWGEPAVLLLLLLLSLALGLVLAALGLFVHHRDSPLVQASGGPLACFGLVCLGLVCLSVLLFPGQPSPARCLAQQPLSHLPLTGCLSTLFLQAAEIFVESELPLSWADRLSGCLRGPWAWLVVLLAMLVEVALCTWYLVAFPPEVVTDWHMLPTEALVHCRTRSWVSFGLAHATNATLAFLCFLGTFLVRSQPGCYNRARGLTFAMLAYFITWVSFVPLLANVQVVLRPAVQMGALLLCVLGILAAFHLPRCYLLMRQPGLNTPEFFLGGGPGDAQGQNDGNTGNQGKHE
Method: Each of Compounds 101-107, 113, and 117-129 was either synthesized or separated from the corresponding synthetic racemate. Thereafter, the compounds were tested in an in vitro cell-based assay having cells that overexpress the T1R sweet taste receptor. The sweet dose-response curves were recorded and the EC50 was calculated. Table 4 sets forth the calculated EC50 values for the compounds tested.

| EC50 (T1R sweet taste receptor) [µM] | Structure (SMILES) | Sucrose concentration of equal sweetness to (6% sucrose + Compound at its TC) (Human Panelists [1]) | Threshold Concentration (TC) - less sweet than 1.5% sucrose (Human Panelists [2]) [ppm] | Threshold Concentration (TC) - less sweet than 1.5% sucrose (Human Panelists [2]; value in brackets) [µM] |
| --- | --- | --- | --- | --- |
| – | CO[C@@H]1C(=O)c2c(O)cc(O)cc2O[C@H]1c1ccc(O)cc1 (racemic) [Compound 101, (trans)-5,7-dihydroxy-2-(4-hydroxyphenyl)-3-methoxychroman-4-one] | ≥7.5% | 11 | 36 |
| 1 | COc1ccc([C@@H]2Oc3cc(O)cc(O)c3C(=O)[C@H]2OC)cc1O (racemic) [Compound 102, (trans)-5,7-dihydroxy-2-(3-hydroxy-4-methoxyphenyl)-3-methoxychroman-4-one] | ≥7.5% | 4 | 12 |
| 0.1 | COc1ccc([C@@H]2Oc3cccc(O)c3C(=O)[C@H]2OC)cc1O (racemic) [Compound 105, (trans)-5-hydroxy-2-(3-hydroxy-4-methoxyphenyl)-3-methoxychroman-4-one] | ≥7.5% | 1.5 | 4.8 |
| 7 | COc1ccc([C@@H]2Oc3cc(O)ccc3C(=O)[C@H]2OC)cc1O (racemic) [Compound 107, (trans)-7-hydroxy-2-(3-hydroxy-4-methoxyphenyl)-3-methoxychroman-4-one] | ≥7.5% | 11 | 35 |
| 92 | CO[C@@H]1C(=O)c2ccc(O)cc2O[C@H]1c1ccc(O)cc1 (relative stereo) [Compound 106, (trans)-7-hydroxy-2-(4-hydroxyphenyl)-3-methoxychroman-4-one] | – | – | – |
| 25 | COc1cc(O)c2c(c1)O[C@@H](c1ccc(OC)c(O)c1)[C@H](OC)C2=O (relative stereo) [Compound 113, (trans)-5-hydroxy-2-(3-hydroxy-4-methoxyphenyl)-3,7-dimethoxychroman-4-one] | – | – | – |
| 1 | CCO[C@@H]1C(=O)c2c(O)cc(O)cc2O[C@H]1c1ccc(OC)c(O)c1 (relative stereo) [Compound 117, (trans)-5,7-dihydroxy-2-(3-hydroxy-4-methoxyphenyl)-3-ethoxychroman-4-one] | – | – | – |
| 30 | CCO[C@@H]1C(=O)c2c(O)cc(O)cc2O[C@H]1c1ccc(O)cc1 (relative stereo) [Compound 118, (trans)-5,7-dihydroxy-2-(4-hydroxyphenyl)-3-ethoxychroman-4-one] | – | – | – |
| 0.4 | CCO[C@@H]1C(=O)c2c(O)cccc2O[C@H]1c1ccc(OC)c(O)c1 (relative stereo) [Compound 119, (trans)-5-hydroxy-2-(3-hydroxy-4-methoxyphenyl)-3-ethoxychroman-4-one] | – | – | – |
| 180 | CO[C@@H]1C(=O)c2c(O)cc(O)cc2O[C@H]1c1cc(O)c(O)c(O)c1 (relative stereo) [Compound 121, (trans)-2-(3,4,5-trihydroxyphenyl)-5,7-dihydroxy-3-methoxychroman-4-one] | – | – | – |
| > 100 | CO[C@@H]1C(=O)c2c(O)cc(O)cc2O[C@H]1c1ccc(O)cc1 (relative stereo) [Compound 125, (−)-(trans)-5,7-dihydroxy-2-(4-hydroxyphenyl)-3-methoxychroman-4-one] | – | – | – |
| 1 | COc1ccc([C@@H]2Oc3cccc(O)c3C(=O)[C@H]2OC)cc1O (relative stereo) [Compound 127, (−)-(trans)-5-hydroxy-2-(3-hydroxy-4-methoxyphenyl)-3-methoxychroman-4-one] | – | – | – |
| > 200 | COc1ccc([C@@H]2Oc3cc(O)ccc3C(=O)[C@H]2OC)cc1O (relative stereo) [Compound 129, (−)-(trans)-7-hydroxy-2-(3-hydroxy-4-methoxyphenyl)-3-methoxychroman-4-one] | – | – | – |
| 0.7 | COc1ccc([C@H]2Oc3cc(O)cc(O)c3C(=O)[C@@H]2OC)cc1O (single isomer, unassigned) [Compound 122, (+)-(trans)-5,7-dihydroxy-2-(3-hydroxy-4-methoxyphenyl)-3-methoxychroman-4-one] | ≥8.0%, | 2.5 | 7.5 |
| 10 | CO[C@H]1C(=O)c2c(O)cc(O)cc2O[C@@H]1c1ccc(O)cc1 (stereo in doubt) [Compound 124, (+)-(trans)-5,7-dihydroxy-2-(4-hydroxyphenyl)-3-methoxychroman-4-one] | ≥8.0% | 5 | 16 |
| 0.03 | COc1ccc([C@H]2Oc3cccc(O)c3C(=O)[C@@H]2OC)cc1O (stereo in doubt) [Compound 126, (+)-(trans)-5-hydroxy-2-(3-hydroxy-4-methoxyphenyl)-3-methoxychroman-4-one] | – | – | – |
| 9 | COc1ccc([C@H]2Oc3cc(O)ccc3C(=O)[C@@H]2OC)cc1O (stereo in doubt) [Compound 128, (+)-(trans)-7-hydroxy-2-(3-hydroxy-4-methoxyphenyl)-3-methoxychroman-4-one] | ≥8.0% | 5 | 16 |
| 4 | COC1C(=O)c2c(O)cccc2OC1c1ccc(O)cc1 (stereo not drawn) [Compound 104, (trans)-5-hydroxy-2-(4-hydroxyphenyl)-3-methoxychroman-4-one] | – | – | – |
| 8 | CCOC1C(=O)c2ccc(O)cc2OC1c1ccc(OC)c(O)c1 (stereo not drawn) [Compound 120, (tans)-7-hydroxy-2-(3-hydroxy-4-methoxyphenyl)-3-ethoxychroman-4-one] | – | – | – |
